One assay has as its system oncogenic Kras (G12C) transformed pancreatic MIA-PaCa-2 cells. Kind of assay: Cell growth of treated cells. The following applies: Kras (G12C) MIA-PaCa-2 cells, FIGS. 3-5. It counts as cell-based. The protocol:
FIGS. 3-5 show data from experiments in which oncogenic Kras (G12C) transformed pancreatic MIA-PaCa-2 cells were treated with NSC-70220, and an experiment in which wild-type Kras expressing pancreatic BxPC-3 ductal cells were treated with NSC-70220.
With `O=[N+]([O-])c1ccccc1/C=C/C=C1c2ccccc2-c2ccccc21` [NSC-70220], the inhibition of growth entry is on record as “selectively inhibits growth”.

The next assay deals with ERK activation of oncogenic Kras (G12D) pancreatic cancer cells. Kind of assay: ERK activation by Western blotting of p-ERK, total ERK. The following applies: Western blot, FIGS. 2A and 2B. It counts as cell-based. (Immunoblotting shows a protein as a band on a membrane.)
Regarding `O=[N+]([O-])c1ccccc1/C=C/C=C1c2ccccc2-c2ccccc21` [NSC-70220], the “inhibition of ERK activation” value is on record as “selectively inhibits ERK activation”.

A further assay deals with Mononuclear bone marrow cells harvested from Kras G12D/+ mice. Kind of assay: CellTiter-Glo Luminescent Cell Viability Assay (growth inhibitory assay). It counts as cell-based. The following applies: Mus musculus, 48 h, 40 μM compound, two days of incubation, percentage of cells still alive at the end of the experiment, read-out: 40 μM (% Residual Activity). The protocol: Mononuclear bone marrow cells harvested from Kras G12D/+ mice were tested for proliferation in a CellTiter-Glo® Luminescent Cell Viability Assay by Promega (Madison, Wis.) carried out by following the instructions provided by the manufacturer in the presence of 40 μM of 176 selected test compounds. […] The structures of these active compounds are shown in Table 1, along with the percentage of residual activity after two days of incubation with 40 μM of the compound. The residual activity is the percentage of cells that were still alive at the end of the experiment.
On the technique in general: Cellular ATP, detected with luciferase, serves as a proxy for viable cell number.
As to `O=C(C(=Cc1ccccc1[N+](=O)[O-])C(=O)c1ccccc1)c1ccccc1` [Compound 526470], the activity at 40 µM is 15%. Consider `C=CCc1ccc(/C=N/NC(=O)c2ccccc2O)cc1O` [Compound 290794], for which the activity at 40 µM stood at 2%.

As to `O=C(NNC(=O)c1ccccc1C(=O)O)c1ccccc1O` [Compound 473089], the activity at 40 µM was found to be 13%.

Regarding `O=C(N/N=C/c1ccc(OCc2ccccc2)cc1)c1cccc(F)c1` [Compound 377247], the activity at 40 µM came out at 11%.

Take `O=C(N/N=C/c1ccc(O)c(O)c1)c1ccc(-c2ccccc2)cc1` [Compound 377089]: the activity at 40 µM turned out to be 6%. The same measure, in the same setting: then `O=C(NCc1ccccc1)/C(=C/C=C\c1ccccc1)NC(=O)c1ccccc1` [Compound 127987], with 5%. Consider `COc1ccc(C=C2c3ccccc3-c3ccccc32)cc1` [Compound 262294], for which the activity at 40 µM is 13%. Regarding `O=C(/C=C(\O)C(F)(F)/C(O)=C/C(=O)c1ccccc1)c1ccccc1` [Compound 387846], the activity at 40 µM was found to be 9%. Same read-out and setting: then `O=C(N/N=C/c1ccc(O)c(Br)c1)c1cc(Br)ccc1O` [Compound 394392], with 3%; and `Cc1cc(C)c2oc(-c3ccc(C)c(/N=C/C=C/c4ccc(Br)c([N+](=O)[O-])c4)c3)nc2c1` [Compound 312987], with 8%.

On to `O=C(/C=C/c1ccccc1[N+](=O)[O-])c1ccco1` [Compound 775432], for which the activity at 40 µM was found to be 0%. For the compound `O=[N+]([O-])c1ccc(C=C(c2nc3ccccc3s2)c2nc3ccccc3s2)cc1` [Compound 408776], the activity at 40 µM worked out at 12%. With `O=[N+]([O-])c1ccccc1/C=C/C=C1c2ccccc2-c2ccccc21` [NSC-70220], the activity at 40 µM lay within 12 to 15%. Same read-out and setting: then `O=C(Nc1ccccc1C(=O)O)c1ccc([N+](=O)[O-])cc1` [Compound 114395], with 16%; and `O=C(N/N=C(/C=C/c1ccccc1)c1ccccc1)c1ccccc1O` [Compound 121366], with 12%; and `O=C(NC(=S)NNC(=O)c1ccccc1O)c1ccc(-c2ccccc2)cc1` [Compound 390481], with 10%. Same read-out and setting: then `O=C(Nc1cc(Cl)ccc1O)c1ccc(Cl)c(C(=O)c2ccc(Cl)cc2)c1` [Compound 773778], with 8%; and `O=C(NC(=S)Nc1ccccc1O)c1ccc(-c2ccccc2)cc1` [Compound 920300], with 12%. Consider `O=C(/C=C/c1ccc(/C=C/C(=O)c2ccc(O)cc2)cc1)c1ccc(O)cc1` [Compound 511128], for which the activity at 40 µM came to 1%. On the same count and under the same terms, then `O=C(N/N=C/C=C/c1ccc([N+](=O)[O-])o1)c1ccccc1O` [Compound 388883], with 1%; and `O=C(N/N=C/c1ccc2ccccc2c1)c1ccccc1O` [Compound 393689], with 11%.

For another assay, the system named is Kras (G12D) transformed pancreatic cancer cells (4039). Put plainly: Cell growth in tissue culture over a four-day period. It counts as cell-based. The following applies: 40 μM, Kras (G12D) cells 4039, FIG. 1. As to the method: Kras (G12D) transformed pancreatic cancer cells (4039) and wild-type Kras expressing pancreatic cancer cells (4037) were each exposed to 40 μM of NSC-70220. Cell growth in the tissue culture was monitored by assays over a four-day period.
`O=[N+]([O-])c1ccccc1/C=C/C=C1c2ccccc2-c2ccccc21` [NSC-70220]: the “inhibition of cell growth” value is on record as “selectively inhibits”.
